Measurements taken from PubChem BioAssay (NCI).
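48-hour exposure; five concentrations; linearly interpolated endpoints. GI50 = concentration required for 50% inhibition of growth. TGI is the concentration that stops growth completely.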

How the values were obtained:
Test in all cases: growth of human tumour cells (NCI), 48 h
HCC-2998 colon = system: HCC-2998 colon
HCT-116 colon = system: HCT-116 colon
NCI-H226 lung = system: NCI-H226 lung
MCF7 breast = system: MCF7 breast
SF-295 CNS = system: SF-295 CNS
OVCAR-5 ovarian = system: OVCAR-5 ovarian
LOX IMVI melanoma = system: LOX IMVI melanoma
K-562 leukemia = system: K-562 leukemia
NCI-H522 lung = system: NCI-H522 lung
OVCAR-4 ovarian = system: OVCAR-4 ovarian

In the case of `O=C(Nc1ncc(Cc2ccc(Cl)cc2)s1)c1ccc2c(c1)OCCO2`, the GI50 (HCC-2998 colon) was 223 nM, the TGI (HCC-2998 colon) was 20.3 µM and the GI50 (HCT-116 colon) was 41.9 nM. The TGI (HCT-116 colon) was > 100 µM, the GI50 (NCI-H226 lung) was 358 nM and the GI50 (MCF7 breast) was 66.1 nM. For the same compound, the TGI (MCF7 breast) was > 100 µM, the GI50 (SF-295 CNS) was 42.4 nM and the TGI (SF-295 CNS) was 2.02 µM. For the same compound, the GI50 (OVCAR-5 ovarian) was 0.266 µM, the TGI (OVCAR-5 ovarian) was > 100 µM and the GI50 (LOX IMVI melanoma) was 74.2 nM. For the same compound, the TGI (LOX IMVI melanoma) was > 100 µM, the GI50 (K-562 leukemia) was 45.3 nM and the TGI (K-562 leukemia) was > 100 µM. The GI50 (NCI-H522 lung) was 33.1 nM, the GI50 (OVCAR-4 ovarian) was 0.547 µM and the TGI (OVCAR-4 ovarian) was > 52.1 µM.
For `O=S(=O)(c1ccccc1)C1CN(Cc2ccccc2)CCN(Cc2ccccc2)C1`, the TGI (HCC-2998 colon) was > 100 µM, the TGI (HCT-116 colon) was > 100 µM and the TGI (NCI-H226 lung) was > 100 µM. For the same compound, the TGI (MCF7 breast) was > 100 µM, the TGI (SF-295 CNS) was > 100 µM and the TGI (OVCAR-5 ovarian) was > 100 µM. The TGI (LOX IMVI melanoma) was > 61.5 µM, the TGI (K-562 leukemia) was > 100 µM and the TGI (NCI-H522 lung) was 34.1 µM. The TGI (OVCAR-4 ovarian) was > 72.6 µM.
With `COc1ccc2c(c1)CC[C@@H]1[C@@H]2CC[C@]2(C)c3c(cc(C(=O)c4ccccc4)c4sccc34)C[C@@H]12` the GI50 (HCC-2998 colon) was > 100000 nM, the TGI (HCC-2998 colon) was > 100 µM and the GI50 (HCT-116 colon) was > 100000 nM. For the same compound, the TGI (HCT-116 colon) was > 100 µM, the GI50 (NCI-H226 lung) was > 100000 nM and the TGI (NCI-H226 lung) was > 100 µM. For the same compound, the GI50 (MCF7 breast) was > 100000 nM, the TGI (MCF7 breast) was > 100 µM and the GI50 (SF-295 CNS) was > 100000 nM. The TGI (SF-295 CNS) was > 100 µM, the GI50 (OVCAR-5 ovarian) was 60.7 µM and the TGI (OVCAR-5 ovarian) was > 100 µM. For the same compound, the GI50 (LOX IMVI melanoma) was > 100000 nM, the TGI (LOX IMVI melanoma) was > 100 µM and the GI50 (K-562 leukemia) was > 100000 nM. The TGI (K-562 leukemia) was > 100 µM, the GI50 (NCI-H522 lung) was > 100000 nM and the TGI (NCI-H522 lung) was > 100 µM. The GI50 (OVCAR-4 ovarian) was 76.8 µM and the TGI (OVCAR-4 ovarian) was > 100 µM.
`CCN(CC)CCCC(C)Nc1ccnc2cc(Cl)c(SCc3ccccc3)cc12` (stereo not drawn) gave a GI50 (HCC-2998 colon) of 511 nM, a TGI (HCC-2998 colon) of 1.88 µM and a GI50 (HCT-116 colon) of 516 nM. It also gave a TGI (HCT-116 colon) of 1.73 µM, a GI50 (NCI-H226 lung) of 2710 nM and a TGI (NCI-H226 lung) of 8.48 µM. For the same compound, the GI50 (MCF7 breast) was 506 nM, the TGI (MCF7 breast) was 1.72 µM and the GI50 (SF-295 CNS) was 1320 nM. For the same compound, the TGI (SF-295 CNS) was 3.02 µM, the GI50 (OVCAR-5 ovarian) was 1.73 µM and the TGI (OVCAR-5 ovarian) was 3.7 µM. For the same compound, the GI50 (LOX IMVI melanoma) was 199 nM, the TGI (LOX IMVI melanoma) was 0.552 µM and the GI50 (K-562 leukemia) was 266 nM. It also gave a TGI (K-562 leukemia) of 0.702 µM, a GI50 (NCI-H522 lung) of 580 nM and a TGI (NCI-H522 lung) of 2.01 µM. It also gave a GI50 (OVCAR-4 ovarian) of 1.53 µM and a TGI (OVCAR-4 ovarian) of 4.05 µM.
In the case of `Cc1ccc(S(=O)(=O)C2=C3C(=C(c4ccccc4)c4ccccc43)CN(S(=O)(=O)c3ccc(C)cc3)C2)cc1`, the GI50 (HCC-2998 colon) was 22500 nM, the TGI (HCC-2998 colon) was > 100 µM and the GI50 (HCT-116 colon) was 2000 nM. The TGI (HCT-116 colon) was 7.78 µM, the GI50 (NCI-H226 lung) was 2570 nM and the TGI (NCI-H226 lung) was 7.85 µM. For the same compound, the GI50 (MCF7 breast) was 2430 nM, the TGI (MCF7 breast) was > 100 µM and the GI50 (SF-295 CNS) was 9970 nM. The TGI (SF-295 CNS) was 57 µM, the GI50 (OVCAR-5 ovarian) was 25.4 µM and the TGI (OVCAR-5 ovarian) was > 100 µM. For the same compound, the GI50 (LOX IMVI melanoma) was 1120 nM, the TGI (LOX IMVI melanoma) was 2.42 µM and the GI50 (K-562 leukemia) was 2080 nM. The TGI (K-562 leukemia) was > 100 µM, the GI50 (NCI-H522 lung) was 2410 nM and the TGI (NCI-H522 lung) was 6.35 µM. The GI50 (OVCAR-4 ovarian) was 5.31 µM and the TGI (OVCAR-4 ovarian) was 72.9 µM.
For `Clc1cccc(Cc2cn3cc(-c4ccccc4)nc3s2)c1`, the GI50 (HCC-2998 colon) was 2390 nM, the TGI (HCC-2998 colon) was > 100 µM and the GI50 (HCT-116 colon) was 9360 nM. For the same compound, the TGI (HCT-116 colon) was > 100 µM, the GI50 (NCI-H226 lung) was 49200 nM and the TGI (NCI-H226 lung) was > 100 µM. The GI50 (MCF7 breast) was 2790 nM, the TGI (MCF7 breast) was > 100 µM and the GI50 (OVCAR-5 ovarian) was 66.8 µM. The TGI (OVCAR-5 ovarian) was > 100 µM, the GI50 (LOX IMVI melanoma) was 629 nM and the TGI (LOX IMVI melanoma) was > 100 µM. For the same compound, the GI50 (K-562 leukemia) was 591 nM, the TGI (K-562 leukemia) was > 100 µM and the GI50 (OVCAR-4 ovarian) was 4.42 µM. The TGI (OVCAR-4 ovarian) was > 100 µM.
`NS(=O)(=O)c1ccc(NCc2cnc3ccccc3c2)cc1` was tested, and the TGI (HCC-2998 colon) was > 100 µM, the TGI (HCT-116 colon) was > 100 µM and the TGI (NCI-H226 lung) was > 100 µM. The TGI (MCF7 breast) was > 100 µM, the TGI (SF-295 CNS) was > 100 µM and the TGI (OVCAR-5 ovarian) was > 100 µM. The TGI (K-562 leukemia) was > 100 µM, the TGI (NCI-H522 lung) was > 100 µM and the TGI (OVCAR-4 ovarian) was > 100 µM.
